Article PMC6193035, “Novel small molecules affecting cell membrane as potential therapeutics for avian pathogenic Escherichia coli” (Scientific Reports, 2018)
Values after ≈ are worked out from the molar mass of the structure shown.

Key:
[1] = system: APEC O78; assay: Crystal violet (CV) uptake assay; type: cell-based, Escherichia coli; details: 2X MBC, 30 mins; P < 0.05, Student's t-test
Method: Membrane permeability assays (crystal violet (CV) uptake and loss of 260/280 nm absorbing materials) were conducted as described previously. […] CV uptake was measured using the formula: (OD DMSO − OD SM/OD DMSO × 100). Two independent experiments in duplicates were conducted.

[2] = system: intracellular APEC O78 in Caco-2 cells; assay: Intracellular survival assay; type: cell-based, Escherichia coli; details: for minimal effective concentration: Escherichia coli, O78, Caco-2, 6 h treatment, read-out: SMs intracellular APEC clearance concentration; for intracellular APEC clearance concentration as multiple of MIC (superscript): O78, Caco-2; for concentration at which the SM significantly (P < 0.01) reduced intracellular APEC (superscript of t-statistic): O78, Caco-2, 6 h
In short: (§1)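 MOI 10 infection with mid-logarithmic APEC; 1 h for macrophages (HD11, THP-1), 3 h for Caco-2. Lysis 0.1% Triton X-100 5 min, serial dilution, LB agar CFU counts. Compared with 1% DMSO wells; two experiments, duplicate wells per concentration.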

[3] = system: intracellular APEC O2 in THP-1 cells; assay: Intracellular survival assay; type: cell-based, Escherichia coli; details: for minimal effective concentration: Escherichia coli, O2, THP-1, 6 h treatment, read-out: SMs intracellular APEC clearance concentration; for concentration at which the SM significantly (P < 0.01) reduced intracellular APEC (superscript of t-statistic): O2, THP-1, 6 h
In short: as §1

[4] = system: intracellular APEC O2 in HD11 cells; assay: Intracellular survival assay; type: cell-based, Escherichia coli; details: for minimal effective concentration: Escherichia coli, O2, HD11, 6 h treatment, read-out: SMs intracellular APEC clearance concentration; for intracellular APEC clearance concentration as multiple of MIC (superscript): O2, HD11; for concentration at which the SM significantly (P < 0.01) reduced intracellular APEC (superscript of t-statistic): O2, HD11, 6 h
In short: as §1

[5] = system: intracellular APEC O1 in Caco-2 cells; assay: Intracellular survival assay; type: cell-based, Escherichia coli; details: for minimal effective concentration: Escherichia coli, O1, Caco-2, 6 h treatment, read-out: SMs intracellular APEC clearance concentration; for concentration at which the SM significantly (P < 0.01) reduced intracellular APEC (superscript of t-statistic): O1, Caco-2, 6 h; for intracellular APEC clearance concentration as multiple of MIC (superscript): O1, Caco-2
In short: as §1

[6] = system: intracellular APEC O78 in THP-1 cells; assay: Intracellular survival assay; type: cell-based, Escherichia coli; details: for minimal effective concentration: Escherichia coli, O78, THP-1, 6 h treatment, read-out: SMs intracellular APEC clearance concentration; for intracellular APEC clearance concentration as multiple of MIC (superscript): O78, THP-1; for concentration at which the SM significantly (P < 0.01) reduced intracellular APEC (superscript of t-statistic): O78, THP-1, 6 h
In short: as §1

[7] = system: APEC O78; assay: Primary screening, growth inhibition of APEC O78; type: cell-based, Escherichia coli; details: 100 µM SM; no APEC recovered on LB agar subculture
Method: To identify the APEC growth inhibitors, SM library was screened against APEC O78 which is one of the most frequently isolated APEC serotypes from avian colibacillosis cases. One microlitre SMs (final concentration of 100 µM) were added using a slotted pin tool (V and P Scientific, San Diego, CA, USA) to the wells of the 96-well plate containing 100 µL of overnight grown 0.05 OD600 (7 × 10^7 CFU/mL) adjusted APEC culture. Controls (four replicates/plate) containing 1 µL of 100% DMSO (final concentration of 1%), 1 µL chloramphenicol (CHL, #C0378 Sigma-Aldrich) (20 µg/mL), 1 µL kanamycin (KAN, #60615 Sigma-Aldrich) (50 µg/mL), and 100 µL of M63 media were included. To determine the effect of DMSO on APEC growth, antimicrobial activity of DMSO was determined at different concentrations (1% to 32%) in a separate experiment. Plate was then incubated at 37 °C for 12 h in Sunrise - Absorbance microplate reader (Tecan Group Ltd. San Jose, CA) with kinetic OD600 measurement every 30 mins. The quality of screening was assessed by calculating the Z′-score as described previously. The growth inhibition of APEC was calculated by using the formula as previously described[13],[14]. The SMs inhibiting at least 80% of the APEC growth were selected as primary hits. […]

[8] = system: intracellular APEC O78, O2, and O1 in infected Caco-2, HD11, and THP1 cells; assay: Intracellular survival assay, statements over all serotypes and cells; type: cell-based, Escherichia coli; details: for minimal effective concentration: Escherichia coli, 6 h, O78, O2 and O1, Caco-2, HD11, THP-1, read-out: concentration clearing intracellular APEC; for ranking in clearing intracellular APEC: all tested serotypes and cells
Method: Intracellular survival assay was conducted as described previously[28],[29] to determine the effect of cidal SMs on APEC survival in phagocytic (HD11, THP-1) and non-phagocytic (Caco-2) cells. Briefly, mid-logarithmic phase grown APEC O78, O1, and O2 were washed and adjusted to 1 × 10^7 CFU/mL in cell culture incomplete media (no FBS and antibiotics). One-hundred microlitres adjusted APEC suspension was added at multiplicity of infection (MOI) 10 to wells of 96-well cell culture plate containing cultured macrophage (HD11, THP-1) and epithelial cells (Caco-2) and incubated for 1 h and 3 h, respectively. […] The cells were then lysed with 100 µL of 0.1% Triton X-100 for 5 mins, serially diluted, and plated on LB agar plate to enumerate viable bacteria. The intracellular bacteria in SMs treated wells were compared with DMSO (1%) treated wells. Two independent experiments in duplicate wells for each concentration of SMs were conducted.

[9] = system: STEC O157 and O26 strains; assay: Activity against STEC strains at 100 µM in M63 media; type: cell-based, Escherichia coli
[10] = system: APEC O115; assay: MIC and MBC determination in M63 media; type: cell-based; details: Escherichia coli
[11] = system: E. coli BW25113; set-up: method as in https://pubchem.ncbi.nlm.nih.gov/bioassay/710; details: 100 µM; ref https://pubchem.ncbi.nlm.nih.gov/bioassay/710; cited from earlier work
[12] = system: E. coli Nissle 1917 and E. coli G58-1; assay: Effect against beneficial microbes; type: cell-based, Escherichia coli; details: 100 µM
Method: SMs were screened against different beneficial microbes to determine their specificity as described previously. SMs were added at 100 µM to 100 µL of 0.05 OD600 adjusted bacterial cultures in specific growth media in 96-well plate, and plate was incubated under indicated conditions. The specific growth media and conditions required for beneficial microbes limited the use of minimal media. Following incubation, endpoint OD600 was measured and cultures from the wells with non-elevated OD600 were plated on selective agar plates to determine the bactericidal effect.

[13] = system: APEC O78; assay: Scanning electron microscopy; type: cell-based, Escherichia coli; details: 2X MBC
Method: The SMs treated APEC O78 cultures prepared above were also processed for scanning electron microscopy (SEM) as described previously. […] Briefly, one volume of bacterial culture was mixed with one volume of fixative (3% glutaraldehyde, 1% paraformaldehyde in 0.1 M potassium phosphate buffer, pH 7.2), and incubated at 4 °C overnight. The fixed bacterial cells were then centrifuged for 5 mins at 1,200 × g, washed twice with PBS, and resuspended in 1% osmium tetroxide for 1 h at room temperature in the dark, followed by serial dehydration of the sample in ethanol and platinum splatter-coating. Visualization and imaging of the sample was performed using a Hitachi S-4700 scanning electron microscope.

SMILES | uptake of crystal violet compared with DMSO [1] | minimal effective concentration [2] [µM] | intracellular APEC clearance concentration as multiple of MIC (superscript) [2] | concentration at which the SM significantly (P < 0.01) reduced intracellular APEC (superscript of t-statistic) [2] | minimal effective concentration [3] [µM] | concentration at which the SM significantly (P < 0.01) reduced intracellular APEC (superscript of t-statistic) [3] | minimal effective concentration [4] [µM] | intracellular APEC clearance concentration as multiple of MIC (superscript) [4] | concentration at which the SM significantly (P < 0.01) reduced intracellular APEC (superscript of t-statistic) [4] | minimal effective concentration [5] [µM] | concentration at which the SM significantly (P < 0.01) reduced intracellular APEC (superscript of t-statistic) [5] | minimal effective concentration [6] [µM] | intracellular APEC clearance concentration as multiple of MIC (superscript) [6] | concentration at which the SM significantly (P < 0.01) reduced intracellular APEC (superscript of t-statistic) [6] | minimal effective concentration [8] [µM] | MBC [10] [µM] | MIC [10] [µM] | intracellular APEC clearance concentration as multiple of MIC (superscript) [5] | effect on E. coli Nissle 1917 and E. coli G58-1 [12] | ranking in clearing intracellular APEC [8] | other results
CC1CCCN(CCC(=O)c2ccc(Br)cc2)C1 (stereo not shown) [SM1] | increased the uptake of crystal violet | 200 | a (1X MIC) | a (0.5X MIC) | 200 | b (1X MIC) | 200 | a (1X MIC) | a (0.5X MIC) | > 400 | b (1X MIC) | 200 | a (1X MIC) | a (0.5X MIC) | ≥ 100 | 200 (≈ 62 µg/mL) | 200 (≈ 62 µg/mL) | – | – | – | bactericidal effect in primary screening [7]: bactericidal; bactericidal activity against STEC strains [9]: not cidal
CCN1/C(=C/c2ccc3ccccc3[n+]2CC)C=Cc2ccccc21 [SM9] | increased the uptake of crystal violet | 50 | b (2X MIC) | b (1X MIC) | 50 | b (1X MIC) | 100 | c (4X MIC) | c (2XMIC) | 100 | c (2XMIC) | 50 | b (2X MIC) | b (1X MIC) | ≤ 100 | 50 | 25 | c (4X MIC) | did not have effect | most effective SMs in clearing intracellular APEC serotypes in all tested cells | growth inhibition of E. coli BW25113 [11]: 57%
CC(=O)OC(C(Br)C(=O)c1ccc([N+](=O)[O-])cc1)C(Cl)(Cl)Cl (stereo not shown) [SM10] | increased the uptake of crystal violet | 100 | c (4X MIC) | b (1X MIC) | 50 | b (1X MIC) | 100 | c (4X MIC) | b (1X MIC) | 100 | b (1X MIC) | 100 | c (4X MIC) | b (1X MIC) | ≤ 100 | 50 (≈ 21.7 µg/mL) | 25 (≈ 10.8 µg/mL) | c (4X MIC) | did not have effect | most effective SMs in clearing intracellular APEC serotypes in all tested cells | cell morphology in SEM [13]: shortened cells (~0.5 µM) and blebbing at both cell poles
